Assay results published in EP4467141A1, “PYRAZOLO-QUINOLINES AS SELECTIVE INHIBITORS OF GENOTOXIC STRESS-INDUCED IKK/NF- KB PATHWAYS FOR CANCER THERAPY” (Max-Delbrück-Centrum für Molekulare Medizin in der …, priority 2023, dated 2024).
“Also recorded” adds a separate entry of the source.

Tested on: NF-κB subunit p65 phosphorylation (S536)
Assay: Western blot of p65 phosphorylation (S536) after DNA damage (irradiation or etoposide) in U2-OS cells
Assay type: cell-based
Settings: for phosphorylation of p65 at serine 536 after DNA damage: 1-hour pre-treatment, irradiation (IR, 20 Gy), 90 min; for activity in cell-based NF-κB activation assays: 10 µM, p65 phosphorylation and NFKBIA expression after irradiation
Description: Fig.1: Identification of inhibitors specific for DNA damage-induced NF-κB activity. (A) Flowchart representing the high-throughput chemical library screening. A screen/counter-screen strategy was used by stimulating NF-κB in U2-OS cells with etoposide (50 µM for 90 min) and hits were counter-screened with TNFα (10 ng/ml for 20 min). Cells were pre-treated with compounds (10 µM) for 1 hour before stimulation, fixed, and percent p65 nuclear translocation measured by fluorescence microscopy. IC50 values were used for final selection. (B) Comparison of mean p65 nuclear translocation following either etoposide or TNFa stimulation after treatment with each counter-screened hit compound. Values were normalized to etoposide or TNFα positive controls. Specific inhibitors (red) of DNA damage-induced NF-κB signaling were defined by setting cut-off criteria (black line). […] (C) IC50 determination for MW01 (left) and MW05 (right) of p65 nuclear translocation, following either etoposide or TNFα treatment. […] IC50 noted with a dotted line. (D) Structures of compounds selected as leads for further analysis, MW01 (5-Hydroxy-10,11-dimethoxy-9H-benzo[c]indolo[3,2,1-ij][1,5]naphthyridin-9-one) and MW05 (3-Amino-7-methoxypyrazolo[3,4-b]quinolin-1-yl)-[3-(dimethylamino)phenyl]methanone). (E) Western blot analysis (top) and quantification (bottom) of NF-κB subunit p65 phosphorylation (S536) following 1-hour pre-treatment with DMSO, MW01 (10 µM), or MW05 (10 µM), in unstimulated, after 90 min irradiation (IR, 20 Gy), or after 20 min TNFα (10 ng/mL) conditions in U2- OS cells. B-actin was used as loading control after. The p-p65 signal was first normalized to β-actin loading control per sample, then each value to DMSO-treated unstimulated to evaluate relative activation of NF-κB. Ns: not significant; ***: p<0.001.
NF-κB was stimulated by DNA damage through either 20 Gy irradiation (IR) and analyzed after 90 minutes or by 10 ng/ml TNFα and analyzed after 20 minutes unless otherwise noted.
All compounds were pre-treated for 1-hour prior to NF-κB stimulation unless otherwise noted.
Cells were collected by scraping and lysed in Baeuerle lysis buffer supplemented with Protease (Thermo Fisher Scientific, 78429) and Phosphatase (Thermo Fisher Scientific, 78420) inhibitors after the appropriate treatment and time point. Proteins were quantified by Bradford assay (Bio-Rad, 5000006) and 20-50 µg of extracted proteins were loaded on 4-20% Protein Gel (Bio-Rad, 4568096) and then transferred onto a PVDF membrane (Bio-Rad, 1620177) using Tris-Glycine buffer with 20% of methanol. Blocking was performed for 1h with 5% not-fat dry milk in PBS 1X. Immunodetection was obtained using primary and secondary antibodies reported in Key Resources Table. The membranes were analyzed by ECL (Thermo Fisher Scientific, 34580) and detected by ChemiDoc XRS+ (Bio-Rad) using ImageLab software (Bio-Rad).

Compound	phosphorylation of p65 at serine 536 after DNA damage	activity in cell-based NF-κB activation assays
COc1ccc2c(c1OC)c(=O)n1c3ccc(O)cc3c3ccnc2c31 [MW01, 5-Hydroxy-10,11-dimethoxy-9H-benzo[c]indolo[3,2,1-ij][1,5]naphthyridin-9-one]	significantly reduced	
COc1ccc2c(c1)c1ccnc3c4nc(OC)ccc4c(=O)n2c13 [MW01-E6, 5,15-dimethoxy-1,11,14-triazapentacyclo[10.7.1,0^2,7.0^8,^20.0^13,^18]icosa-2(7),3,5,8(20),9,11,13(18),14,16-nonaen-19-one]		inactive
COc1ccc2c(c1)c1ccnc3c4ccnc(OC)c4c(=O)n2c13 [MW01-E14, 5,17-dimethoxy-1,11,16-triazapentacyclo[10.7.1.0^2,^7.0^8,^20.0^13,^18]icosa-2(7),3,5,8(20),9,11,13(18),14,16-nonaen-19-one]		inactive
COc1ccc2cc3c(N)nn(C(=O)c4cccc(N(C)C)c4)c3nc2c1 [MW05, (3-Amino-7-methoxypyrazolo[3,4-b]quinolin-1-yl)-[3-(dimethylamino)phenyl]methanone]	significantly reduced	
COc1ccc2nc3c(cc2c1)c(N)nn3C(=O)c1cccc(N(C)C)c1 [MW05-E2, 1-[3-(dimethylamino)benzoyl]-6-methoxy-1H-pyrazolo[3,4-b]quinolin-3-amine]		inactive; also recorded: lacking activity
